This is an account of results in patent US10561143B2, “Fungicidal composition having synergistic effect” (JIANGSU HUIFENG AGROCHEMICAL CO., LTD., priority 2013, dated 2020).

In brackets after ≈: the same amount, converted by molar mass. Like-named read-outs stand apart in the source and are kept apart here.

As usually defined, the EC50 is the concentration that produces a half-maximal response. High values mean a less potent agent, low ones a more potent agent.

The test system of test [1] is downy mildew pathogens of grape. The experiment in a line: Toxicity test on downy mildew pathogens of grape (disease index and control effect on whole grape plants, EC50 and co-toxicity coefficient).
The test system of test [2] is late blight pathogens of potato. In words: whole plant or invertebrate. It counts as in vivo.
The mark [3] stands for this setting: Table 6, series with fluopicolide.
Setting [4] is: Table 9, series with picoxystrobin.

`C[C@@]1(c2ccc(Oc3ccccc3)cc2)OC(=O)N(Nc2ccccc2)C1=O` (racemic) [Famoxadone] returned an EC50 in test [1] of 13.8 µg/mL (≈ 36.9 µM).
As for `CC(C)OC(=O)N[C@H](C(=O)N[C@H](C)c1nc2ccc(F)cc2s1)C(C)C` [Benthiavalicarb-isopropyl], the EC50 in test [1] is 10.8 µg/mL (≈ 28.2 µM); in test [2] (Phytophthora infestans), 6.73 µg/mL (≈ 17.6 µM).
In the case of `Cl.O=c1[nH]sc2ccccc12` [Benziothiazolinone hydrochloride], the EC50 in test [1] (Table 10, series with fluazinam) stood at 12.87 µg/mL.
With `O=c1[nH]sc2ccccc12` [Benziothiazolinone], the EC50 in test [1] (Table 1, series with benthiavalicarb-isopropyl) is 8.92 µg/mL (≈ 59 µM); in test [1] (Table 2, series with zoxamide), 9.41 µg/mL (≈ 62.2 µM); in test [1] (Table 3, series with prothioconazole), 10.05 µg/mL (≈ 66.5 µM); in test [1] (Table 4, series with boscalid), 9.46 µg/mL (≈ 62.6 µM); in test [1] (Table 5, series with fenamidone), 10.59 µg/mL (≈ 70 µM); in test [1] (setting [3]), 12.17 µg/mL (≈ 80.5 µM). For the same compound, the EC50 in test [1] (Table 7, series with famoxadone) is 11.36 µg/mL (≈ 75.1 µM); in test [1] (Table 8, series with pyraclostrobin), 11.85 µg/mL (≈ 78.4 µM); in test [1] (setting [4]) it was 14.18 µg/mL (≈ 93.8 µM); in test [2] (Table 11, series with pyraclostrobin) it was 6.89 µg/mL (≈ 45.6 µM); in test [2] (Table 12, series with boscalid), 5.58 µg/mL (≈ 36.9 µM); in test [2] (Table 13, series with benthiavalicarb-isopropyl), 6.22 µg/mL (≈ 41.1 µM). Besides, the EC50 is 5.89 µg/mL (≈ 39 µM) in test [2] (Table 14, series with zoxamide) and 6.12 µg/mL (≈ 40.5 µM) in test [2] (Table 15, series with fenamidone).
For the compound `O=C(Nc1ccccc1-c1ccc(Cl)cc1)c1cccnc1Cl` [Boscalid], the EC50 was 11.6 µg/mL (≈ 33.8 µM) in test [1] and 6.31 µg/mL (≈ 18.4 µM) in test [2] (Phytophthora infestans).
Take `CSC1=N[C@@](C)(c2ccccc2)C(=O)N1Nc1ccccc1` [Fenamidone]: the figures for the EC50 in test [1] and in test [2] (Phytophthora infestans) were 12.8 µg/mL (≈ 41 µM) and 6.58 µg/mL (≈ 21.1 µM), respectively.
As to `O=[N+]([O-])c1cc(C(F)(F)F)c(Cl)c([N+](=O)[O-])c1Nc1ncc(C(F)(F)F)cc1Cl` [Fluazinam], a half-maximal effect in test [1] (EC50) was put at 11.2 µg/mL (≈ 24.2 µM).
With `O=C(NCc1ncc(C(F)(F)F)cc1Cl)c1c(Cl)cccc1Cl` [Fluopicolide], the EC50 in test [1] (setting [3]) was found to be 15.32 µg/mL (≈ 39.9 µM).
`CO/C=C(/C(=O)OC)c1ccccc1COc1cccc(C(F)(F)F)n1` [Picoxystrobin] came in with a concentration for a half-maximal effect (EC50) in test [1] (setting [4]) of 15.31 µg/mL (≈ 41.7 µM).
On to `OC(Cc1ccccc1Cl)(Cn1nc[nH]c1=S)C1(Cl)CC1` (stereo not drawn) [Prothioconazole], for which the EC50 in test [1] is 13.3 µg/mL (≈ 38.5 µM).
For `CCC(C)(NC(=O)c1cc(Cl)c(C)c(Cl)c1)C(=O)CCl` (stereo not drawn) [Zoxamide], the EC50 came out at 11.5 µg/mL (≈ 34.1 µM) in test [1] and 6.21 µg/mL (≈ 18.4 µM) in test [2] (Phytophthora infestans).
With `COC(=O)N(OC)c1ccccc1COc1ccn(-c2ccc(Cl)cc2)n1` [pyraclostrobin], the figures for the EC50 in test [1] and in test [2] (Phytophthora infestans) were 10.7 µg/mL (≈ 27.6 µM) and 5.28 µg/mL (≈ 13.6 µM), respectively.
